Reference: the supplement of paper PMC10307832

Columns and labels:
Test in all cases: relative viability (nuclei count vs DMSO), 5 days (fraction); higher = more cells survive
A-427 = tested on: A-427
Method in brief: (§1)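 The day after seeding in 1536-well plates, lung cancer cell lines were treated by pin tool with a single drug, or with a fixed anchor-drug dose together with five library-drug doses (not always all listed) in √10 steps. After 5 days, a combined fix-and-stain solution (final 0.05% Triton X-100, 1% formaldehyde, 1 ug/ml Hoechst) was added. Nuclei counted on 4× images gave relative viability as treated counts over vehicle counts, reported as the median of duplicate plates.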

HCC-366 = tested on: HCC-366
Method in brief: as §1

HCC-827 = tested on: HCC-827
Method in brief: as §1

LC-2-ad = tested on: LC-2-ad
Method in brief: as §1

LCLC-103H = tested on: LCLC-103H
Method in brief: as §1

NCI-H1355 = tested on: NCI-H1355
Method in brief: as §1

NCI-H1734 = tested on: NCI-H1734
Method in brief: as §1

NCI-H1755 = tested on: NCI-H1755
Method in brief: as §1

NCI-H1915 = tested on: NCI-H1915
Method in brief: as §1

NCI-H1975 = tested on: NCI-H1975
Method in brief: as §1

NCI-H1993 = tested on: NCI-H1993
Method in brief: as §1

NCI-H2170 = tested on: NCI-H2170
Method in brief: as §1

NCI-H2228 = tested on: NCI-H2228
Method in brief: as §1

NCI-H2342 = tested on: NCI-H2342
Method in brief: as §1

NCI-H2347 = tested on: NCI-H2347
Method in brief: as §1

NCI-H23 = tested on: NCI-H23
Method in brief: as §1

NCI-H650 = tested on: NCI-H650
Method in brief: as §1

RERF-LC-KJ = tested on: RERF-LC-KJ
Method in brief: as §1

SK-LU-1 = tested on: SK-LU-1
Method in brief: as §1

SK-MES-1 = tested on: SK-MES-1
Method in brief: as §1

SW 1573 = tested on: SW 1573
Method in brief: as §1

UMC-11 = tested on: UMC-11
Method in brief: as §1

CCNC(=O)c1noc(-c2cc(C(C)C)c(O)cc2O)c1-c1ccc(CN2CCOCC2)cc1 [Luminespib] + COc1cc2c(Oc3ccc(NC(=O)C4(C(=O)Nc5ccc(F)cc5)CC4)cc3F)ccnc2cc1OCCCN1CCOCC1 [Foretinib] (partner 0.25 µM)
relative viability (A-427; first compound 0.002 µM): 1.14 | relative viability (A-427; first compound 0.006325 µM): 0.969 | relative viability (A-427; first compound 0.02 µM): 0.84 | relative viability (A-427; first compound 0.06325 µM): 1.06 | relative viability (A-427; first compound 0.2 µM): 1.1 | relative viability (HCC-366; first compound 0.002 µM): 0.925 | relative viability (HCC-366; first compound 0.006325 µM): 0.921 | relative viability (HCC-366; first compound 0.02 µM): 0.921 | relative viability (HCC-366; first compound 0.06325 µM): 0.887 | relative viability (HCC-366; first compound 0.2 µM): 0.199 | relative viability (HCC-827; first compound 0.002 µM): 1.06 | relative viability (HCC-827; first compound 0.006325 µM): 0.971 | relative viability (HCC-827; first compound 0.02 µM): 0.869 | relative viability (HCC-827; first compound 0.06325 µM): 0.692 | relative viability (HCC-827; first compound 0.2 µM): 0.152 | relative viability (LC-2-ad; first compound 0.002 µM): 1.02 | relative viability (LC-2-ad; first compound 0.006325 µM): 0.928 | relative viability (LC-2-ad; first compound 0.02 µM): 0.834 | relative viability (LC-2-ad; first compound 0.06325 µM): 0.321 | relative viability (LC-2-ad; first compound 0.2 µM): 0.25 | relative viability (LCLC-103H; first compound 0.002 µM): 0.826 | relative viability (LCLC-103H; first compound 0.006325 µM): 0.778 | relative viability (LCLC-103H; first compound 0.02 µM): 0.757 | relative viability (LCLC-103H; first compound 0.06325 µM): 0.87 | relative viability (LCLC-103H; first compound 0.2 µM): 0.362 | relative viability (NCI-H1355; first compound 0.002 µM): 1.02 | relative viability (NCI-H1355; first compound 0.006325 µM): 0.912 | relative viability (NCI-H1355; first compound 0.02 µM): 0.671 | relative viability (NCI-H1355; first compound 0.06325 µM): 0.927 | relative viability (NCI-H1355; first compound 0.2 µM): 0.622 | relative viability (NCI-H1734; first compound 0.002 µM): 0.9 | relative viability (NCI-H1734; first compound 0.006325 µM): 0.915 | relative viability (NCI-H1734; first compound 0.02 µM): 0.697 | relative viability (NCI-H1734; first compound 0.06325 µM): 0.175 | relative viability (NCI-H1734; first compound 0.2 µM): 0.171 | relative viability (NCI-H1755; first compound 0.002 µM): 0.874 | relative viability (NCI-H1755; first compound 0.006325 µM): 0.946 | relative viability (NCI-H1755; first compound 0.02 µM): 0.948 | relative viability (NCI-H1755; first compound 0.06325 µM): 0.555 | relative viability (NCI-H1755; first compound 0.2 µM): 0.305 | relative viability (NCI-H1915; first compound 0.002 µM): 1.13 | relative viability (NCI-H1915; first compound 0.006325 µM): 1.04 | relative viability (NCI-H1915; first compound 0.02 µM): 1.02 | relative viability (NCI-H1915; first compound 0.06325 µM): 1.05 | relative viability (NCI-H1915; first compound 0.2 µM): 0.826 | relative viability (NCI-H1975; first compound 0.002 µM): 1.07 | relative viability (NCI-H1975; first compound 0.006325 µM): 0.97 | relative viability (NCI-H1975; first compound 0.02 µM): 0.615 | relative viability (NCI-H1975; first compound 0.06325 µM): 0.0994 | relative viability (NCI-H1975; first compound 0.2 µM): 0.108 | relative viability (NCI-H1993; first compound 0.002 µM): 0.772 | relative viability (NCI-H1993; first compound 0.006325 µM): 0.779 | relative viability (NCI-H1993; first compound 0.02 µM): 0.632 | relative viability (NCI-H1993; first compound 0.06325 µM): 0.549 | relative viability (NCI-H1993; first compound 0.2 µM): 0.482 | relative viability (NCI-H2170; first compound 0.002 µM): 0.986 | relative viability (NCI-H2170; first compound 0.006325 µM): 0.973 | relative viability (NCI-H2170; first compound 0.02 µM): 0.806 | relative viability (NCI-H2170; first compound 0.06325 µM): 0.72 | relative viability (NCI-H2170; first compound 0.2 µM): 0.181 | relative viability (NCI-H2228; first compound 0.002 µM): 0.776 | relative viability (NCI-H2228; first compound 0.006325 µM): 0.844 | relative viability (NCI-H2228; first compound 0.02 µM): 0.692 | relative viability (NCI-H2228; first compound 0.06325 µM): 0.111 | relative viability (NCI-H2228; first compound 0.2 µM): 0.117 | relative viability (NCI-H2342; first compound 0.002 µM): 1.02 | relative viability (NCI-H2342; first compound 0.006325 µM): 0.991 | relative viability (NCI-H2342; first compound 0.02 µM): 0.656 | relative viability (NCI-H2342; first compound 0.06325 µM): 0.786 | relative viability (NCI-H2342; first compound 0.2 µM): 0.543 | relative viability (NCI-H2347; first compound 0.002 µM): 0.987 | relative viability (NCI-H2347; first compound 0.006325 µM): 0.64 | relative viability (NCI-H2347; first compound 0.02 µM): 0.59 | relative viability (NCI-H2347; first compound 0.06325 µM): 0.922 | relative viability (NCI-H2347; first compound 0.2 µM): 0.376 | relative viability (NCI-H23; first compound 0.002 µM): 1.26 | relative viability (NCI-H23; first compound 0.006325 µM): 1.03 | relative viability (NCI-H23; first compound 0.02 µM): 0.858 | relative viability (NCI-H23; first compound 0.06325 µM): 0.971 | relative viability (NCI-H23; first compound 0.2 µM): 0.591 | relative viability (NCI-H650; first compound 0.002 µM): 1.09 | relative viability (NCI-H650; first compound 0.006325 µM): 0.974 | relative viability (NCI-H650; first compound 0.02 µM): 0.782 | relative viability (NCI-H650; first compound 0.06325 µM): 0.811 | relative viability (NCI-H650; first compound 0.2 µM): 0.149 | relative viability (RERF-LC-KJ; first compound 0.002 µM): 0.875 | relative viability (RERF-LC-KJ; first compound 0.006325 µM): 0.832 | relative viability (RERF-LC-KJ; first compound 0.02 µM): 0.71 | relative viability (RERF-LC-KJ; first compound 0.06325 µM): 0.861 | relative viability (RERF-LC-KJ; first compound 0.2 µM): 0.445 | relative viability (SK-LU-1; first compound 0.002 µM): 0.825 | relative viability (SK-LU-1; first compound 0.006325 µM): 0.559 | relative viability (SK-LU-1; first compound 0.02 µM): 0.392 | relative viability (SK-LU-1; first compound 0.06325 µM): 0.131 | relative viability (SK-LU-1; first compound 0.2 µM): 0.133 | relative viability (SK-MES-1; first compound 0.002 µM): 0.829 | relative viability (SK-MES-1; first compound 0.006325 µM): 0.804 | relative viability (SK-MES-1; first compound 0.02 µM): 0.777 | relative viability (SK-MES-1; first compound 0.06325 µM): 0.138 | relative viability (SK-MES-1; first compound 0.2 µM): 0.156 | relative viability (SW 1573; first compound 0.002 µM): 0.91 | relative viability (SW 1573; first compound 0.006325 µM): 0.766 | relative viability (SW 1573; first compound 0.02 µM): 0.521 | relative viability (SW 1573; first compound 0.06325 µM): 0.148 | relative viability (SW 1573; first compound 0.2 µM): 0.119 | relative viability (UMC-11; first compound 0.002 µM): 1.14 | relative viability (UMC-11; first compound 0.006325 µM): 0.982 | relative viability (UMC-11; first compound 0.02 µM): 0.816 | relative viability (UMC-11; first compound 0.06325 µM): 0.561 | relative viability (UMC-11; first compound 0.2 µM): 0.169
